Data as given in PMC3685178 (Chemical communications (Cambridge, England), 2013).

Tested on: MCF-7 tumour cells
Format: cell-based, human
Details: MCF-7, 50 nM, 48 h exposure; cells larger in size, characteristic of G2-M arrest

Compound: CC(=O)O[C@H]1C(=O)[C@@]2(C)[C@H]([C@H](OC(=O)c3ccccc3)[C@]3(O)C[C@H](OC(=O)[C@H](O)[C@@H](NC(=O)c4ccccc4)c4ccccc4)C(C)=C1C3(C)C)[C@]1(OC(C)=O)CO[C@@H]1C[C@@H]2O [PTX, paclitaxel]
- cell populations in live/dead assay: significantly reduced
